Reference: ChEMBL document CHEMBL5260810, “Inhibition of bromodomain-containing protein 9 for the prevention of epigenetically-defined drug resistance” (Bioorg Med Chem Lett, 2017)
pIC50, pKd: −log10 of the molar value.

Experiments:
[1] = molecular target: Proto-oncogene tyrosine-protein kinase Src (Homo sapiens) (UniProt P12931); test: Inhibition of Src (unknown origin) at 1 uM relative to control
[2] = molecular target: T1, Peregrin (Homo sapiens, UniProt P55201); test: Binding affinity to human partial length BRPF1 (E627 to G740 residues) expressed in bacterial expression system by BROMOscan assay
T1 sequence (P55201 whole entry): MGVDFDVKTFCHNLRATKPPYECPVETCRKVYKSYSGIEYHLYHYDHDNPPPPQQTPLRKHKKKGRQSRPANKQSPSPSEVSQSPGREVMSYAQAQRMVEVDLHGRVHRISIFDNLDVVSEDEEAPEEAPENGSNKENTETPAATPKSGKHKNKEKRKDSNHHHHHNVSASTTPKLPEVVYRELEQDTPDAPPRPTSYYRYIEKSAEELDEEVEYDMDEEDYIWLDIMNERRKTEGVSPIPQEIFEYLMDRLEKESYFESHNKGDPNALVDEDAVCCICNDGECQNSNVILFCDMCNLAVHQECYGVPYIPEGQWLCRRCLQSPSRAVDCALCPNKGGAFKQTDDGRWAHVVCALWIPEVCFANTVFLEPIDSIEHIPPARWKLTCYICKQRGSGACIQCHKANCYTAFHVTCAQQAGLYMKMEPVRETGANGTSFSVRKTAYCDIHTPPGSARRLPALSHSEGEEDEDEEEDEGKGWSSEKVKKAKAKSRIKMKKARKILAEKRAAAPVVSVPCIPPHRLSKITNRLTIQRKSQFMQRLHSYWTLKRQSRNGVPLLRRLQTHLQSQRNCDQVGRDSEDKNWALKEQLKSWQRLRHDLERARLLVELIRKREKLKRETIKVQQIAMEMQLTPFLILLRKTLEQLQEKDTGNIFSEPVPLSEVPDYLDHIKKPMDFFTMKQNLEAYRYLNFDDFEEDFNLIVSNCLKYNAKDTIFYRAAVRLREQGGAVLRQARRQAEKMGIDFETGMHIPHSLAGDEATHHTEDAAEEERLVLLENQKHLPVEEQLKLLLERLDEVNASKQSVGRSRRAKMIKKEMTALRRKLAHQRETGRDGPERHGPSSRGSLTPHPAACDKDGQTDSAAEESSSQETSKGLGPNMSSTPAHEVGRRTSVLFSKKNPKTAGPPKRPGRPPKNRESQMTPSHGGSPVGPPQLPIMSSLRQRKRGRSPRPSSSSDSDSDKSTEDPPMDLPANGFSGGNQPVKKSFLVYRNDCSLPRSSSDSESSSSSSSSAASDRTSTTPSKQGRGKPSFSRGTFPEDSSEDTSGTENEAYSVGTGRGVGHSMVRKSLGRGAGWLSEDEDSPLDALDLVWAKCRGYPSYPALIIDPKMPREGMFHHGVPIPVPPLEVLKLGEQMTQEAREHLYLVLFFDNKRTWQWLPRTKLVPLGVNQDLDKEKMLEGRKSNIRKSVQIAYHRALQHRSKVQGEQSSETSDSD

[3] = system: NCI-H1975; test: Cytotoxicity against human NCI-H1975 cells measured after 8 days; type: functional, cell-based; conditions: NCI-H1975, 192 h
[4] = system: GP5d; test: Cytotoxicity against human GP5d cells measured after 8 days; type: functional, cell-based; conditions: 192 h
[5] = molecular target: 5-hydroxytryptamine receptor 4 (Homo sapiens) (UniProt Q13639); test: Inhibition of human 5HT4e at 10 uM relative to control
[6] = molecular target: 5-hydroxytryptamine receptor 1B (Rattus norvegicus) (UniProt P28564); test: Displacement of [125I]-CYP from rat brain 5-HT1B receptor at 10 uM after 120 mins by scintillation counting analysis relative to control
[7] = molecular target: Bromodomain-containing protein 2 (Homo sapiens, UniProt P25440); test: Binding affinity to human partial length BRD2 bromodomain 1/2 isoform 1 (K71 to D455 residues) by BROMOscan assay
[8] = molecular target: Adrenergic receptor alpha-2 (Rattus norvegicus) (UniProt P22086+P19328+P22909); test: Displacement of [3H]-RX 821002 from rat alpha2 adrenoceptor at 10 uM after 60 mins by scintillation counting analysis relative to control; type: protein assay
[9] = molecular target: Bromodomain-containing protein 4 (Homo sapiens, UniProt O60885); test: Displacement of biotinylated small-molecule ligand from recombinant His-tagged BRD4 bromodomain 2 (unknown origin) measured after 10 mins by TR-FRET assay
[10] = system: KNS-62; test: Cytotoxicity against human KNS-62 cells measured after 8 days; type: functional, cell-based; conditions: KNS-62, 192 h
[11] = system: NCI-H2009; test: Cytotoxicity against human NCI-H2009 cells measured after 8 days; type: functional, cell-based; conditions: NCI-H2009, 192 h
[12] = system: SK-BR-3; test: Cytotoxicity against human SK-BR-3 cells measured after 8 days; type: functional, cell-based; conditions: SK-BR-3, 192 h
[13] = system: HCC515; test: Cytotoxicity against human HCC515 cells measured after 8 days; type: functional, cell-based; conditions: HCC515, 192 h
[14] = system: NCI-H1355; test: Cytotoxicity against human NCI-H1355 cells measured after 8 days; type: functional, cell-based; conditions: NCI-H1355, 192 h
[15] = Cytotoxicity against human HCC461 cells measured after 8 days; type: functional, cell-based; conditions: HCC461, 192 h
[16] = system: NCI-H1666; test: Cytotoxicity against human NCI-H1666 cells measured after 8 days; type: functional, cell-based; conditions: NCI-H1666, 192 h
[17] = species on record: Homo sapiens; test: Inhibition of JAK1alpha1 (unknown origin) at 1 uM relative to control

Proto-oncogene tyrosine-protein kinase Src (Homo sapiens), sequence (P12931 2-536 limits assumed): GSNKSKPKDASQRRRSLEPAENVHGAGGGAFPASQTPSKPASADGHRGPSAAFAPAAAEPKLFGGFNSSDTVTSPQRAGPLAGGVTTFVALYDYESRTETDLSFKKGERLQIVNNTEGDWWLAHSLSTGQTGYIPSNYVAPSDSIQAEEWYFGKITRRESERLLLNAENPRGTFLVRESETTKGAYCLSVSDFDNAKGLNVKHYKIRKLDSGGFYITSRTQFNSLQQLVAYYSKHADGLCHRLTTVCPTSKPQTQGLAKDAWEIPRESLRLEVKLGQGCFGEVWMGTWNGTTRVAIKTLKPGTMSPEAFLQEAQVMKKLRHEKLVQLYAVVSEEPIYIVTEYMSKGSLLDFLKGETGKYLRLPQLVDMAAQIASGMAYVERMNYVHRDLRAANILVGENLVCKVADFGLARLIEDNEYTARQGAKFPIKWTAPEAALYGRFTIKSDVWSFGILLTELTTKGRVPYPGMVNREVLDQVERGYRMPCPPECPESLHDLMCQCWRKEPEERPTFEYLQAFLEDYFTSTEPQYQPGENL
Bromodomain-containing protein 2, sequence (P25440 whole entry, the tested form may be a part, canonical isoform): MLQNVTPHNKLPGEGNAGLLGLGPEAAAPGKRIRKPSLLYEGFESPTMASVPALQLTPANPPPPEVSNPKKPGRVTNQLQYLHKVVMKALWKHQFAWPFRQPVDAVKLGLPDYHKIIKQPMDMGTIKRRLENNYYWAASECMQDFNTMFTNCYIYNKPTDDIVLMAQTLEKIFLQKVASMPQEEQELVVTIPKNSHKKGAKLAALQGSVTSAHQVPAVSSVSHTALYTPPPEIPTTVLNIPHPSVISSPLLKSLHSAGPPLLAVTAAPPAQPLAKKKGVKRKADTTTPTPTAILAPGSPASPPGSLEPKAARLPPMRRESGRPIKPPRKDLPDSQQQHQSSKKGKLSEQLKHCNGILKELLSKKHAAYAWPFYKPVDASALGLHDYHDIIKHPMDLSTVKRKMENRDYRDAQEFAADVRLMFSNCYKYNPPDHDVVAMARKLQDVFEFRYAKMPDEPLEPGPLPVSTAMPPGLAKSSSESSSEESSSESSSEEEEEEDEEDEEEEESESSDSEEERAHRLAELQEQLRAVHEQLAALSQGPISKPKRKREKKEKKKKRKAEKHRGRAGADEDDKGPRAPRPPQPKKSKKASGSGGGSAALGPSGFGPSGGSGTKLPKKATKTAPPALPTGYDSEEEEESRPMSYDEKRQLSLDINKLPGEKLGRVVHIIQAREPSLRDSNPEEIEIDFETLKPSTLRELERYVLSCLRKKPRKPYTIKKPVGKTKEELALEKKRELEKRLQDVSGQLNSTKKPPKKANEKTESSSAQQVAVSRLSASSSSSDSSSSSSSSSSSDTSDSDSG
5-hydroxytryptamine receptor 4 (Homo sapiens), sequence (Q13639 whole entry): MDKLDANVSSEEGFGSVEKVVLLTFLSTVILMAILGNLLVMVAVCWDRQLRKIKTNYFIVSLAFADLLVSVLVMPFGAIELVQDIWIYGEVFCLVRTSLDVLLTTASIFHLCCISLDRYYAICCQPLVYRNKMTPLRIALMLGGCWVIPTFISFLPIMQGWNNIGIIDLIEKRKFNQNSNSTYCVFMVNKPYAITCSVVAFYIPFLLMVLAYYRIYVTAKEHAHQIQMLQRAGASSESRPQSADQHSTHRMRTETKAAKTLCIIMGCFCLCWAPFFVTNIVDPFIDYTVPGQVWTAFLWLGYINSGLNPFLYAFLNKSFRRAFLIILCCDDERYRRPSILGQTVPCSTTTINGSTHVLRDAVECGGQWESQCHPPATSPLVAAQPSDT
5-hydroxytryptamine receptor 1B (Rattus norvegicus), sequence (P28564 whole entry, the tested form may be a part, canonical isoform): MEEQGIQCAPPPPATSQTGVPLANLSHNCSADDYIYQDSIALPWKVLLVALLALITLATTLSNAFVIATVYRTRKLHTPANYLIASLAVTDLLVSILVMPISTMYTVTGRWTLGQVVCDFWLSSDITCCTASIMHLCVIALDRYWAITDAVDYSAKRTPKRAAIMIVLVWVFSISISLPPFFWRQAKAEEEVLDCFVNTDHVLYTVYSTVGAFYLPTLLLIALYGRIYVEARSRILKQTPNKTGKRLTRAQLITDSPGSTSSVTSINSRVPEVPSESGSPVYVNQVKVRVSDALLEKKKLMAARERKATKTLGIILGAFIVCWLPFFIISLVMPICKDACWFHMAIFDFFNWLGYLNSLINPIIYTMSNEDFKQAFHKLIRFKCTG

Structure (SMILES) | inhibition [1] [%] | pKd [2] | pIC50 [3] | pIC50 [4] | inhibition [5] [%] | Activity [6] [%] | pKd [7] | Activity [8] [%] | pIC50 [9] | pIC50 [10] | pIC50 [11] | pIC50 [12] | pIC50 [13] | pIC50 [14] | pIC50 [15] | pIC50 [16] | inhibition [17] [%]
C/C=C/Cn1cc(-c2ccc(C(C)(C)O)cc2OC)c2cc[nH]c2c1=O | 4.5 | < 5.00 | 4.70 | 4.70 | -1 | -15 | 5.55 | -1 | < 4.70 | 4.83 | 4.70 | 4.70 | 4.70 | 4.70 | 4.70 | 4.70 | -4
C/C=C/Cn1cc(-c2ccc(C(=O)N3CCOCC3)cc2)c2cc[nH]c2c1=O | 0.9 | < 5.00 | 4.70 | 4.70 | 2 | 8 | 5.64 | -7 | 5.08 | 4.70 | 4.70 | 4.70 | 4.70 | 4.70 | 4.70 | 4.71 | 25.3
C/C=C/Cn1cc(-c2cc(OC)c(C(C)(C)O)cc2OC)c2cc(C)[nH]c2c1=O | – | < 5.00 | – | – | – | – | 5.77 | – | < 4.70 | – | – | – | – | – | – | – | –
C/C=C/Cn1cc(-c2cc(OC)c(C(=O)N3CCOCC3)cc2OC)c2cc(C)[nH]c2c1=O | 3.5 | < 5.00 | 5.70 | 5.70 | -8 | -10 | < 5.00 | -12 | < 4.70 | 5.70 | 5.70 | 5.70 | 5.70 | 5.70 | 5.70 | 5.70 | -9.5
